From patent US12577232B2, “N-heterocycle substituted tryptamine derivatives and methods of using” (ENVERIC B[…] INC., priority 2024, dated 2026) come the findings set out here.

By Ki is commonly meant a dissociation constant, usually derived from enzyme kinetics or from competition with a known ligand.

The target in assay [1] is T1, human serotonin transporter (SERT) (Homo sapiens, UniProt P31645).
T1 construct: purchased PerkinElmer RBHSTM400UA
Kind of assay: biochemical. The assay is classed as binding. The method, then:
A commonly applied SERT binding assay involves competition binding assays employing radiolabelled ligands. […] Radioactive binding assays were carried out using the Scintillation Proximity Assay (SPA). For saturation binding assay, mixtures of 9 μg of membrane containing human SERT was pre-coupled to 1 mg of SPA beads at room temperature in a tube rotator for 1 hour in binding buffer (50 mM Tris-HCl pH7.4, 120 mM NaCl, 5 mM KCl, 1 mM ascorbic acid, 10 μM pargyline HCl). […] After incubation, the samples are read on a MicroBeta 2 Microplate Counter. Non-specific binding was carried out in the presence of 200 μM of clomipramine hydrochloride (C7291-1G, Sigma). Equilibrium binding constant for imipramine (KD) was determined from saturation binding curve using one-site saturation binding analysis from GraphPad PRISM software (Version 9.2.0). All test compounds were dissolved to 100 mM in DMSO and dilutions were carried out in assay buffer. […] Ki values were calculated from the competition displacement data using the competitive binding analysis from GraphPad PRISM software. […] Vehicle (DMSO) without drug was used as a negative control.

The next assay concerns the target T2, 5-HT2A receptor (Homo sapiens, UniProt P28223).
T2 construct: purchased PerkinElmer ES-313-M400UA
The assay is described as follows: 5-HT2A receptor radioligand competition assay (SPA, [3H]ketanserin). To be noted: 1 nM [3H]ketanserin, membranes containing 5-HT2A. The assay is classed as binding. The method, then: Competition assays were performed as for 5-HT1A assays with the following differences. […] Determination of non-specific binding was carried out in the presence of […] of spiperone (S7395-250MG, Sigma-Aldrich). Equilibrium binding constant for ketanserin (Kd) was determined from saturation binding curves using the ‘one-site saturation binding analysis’ method in GraphPad PRISM software (Version 9.2.0).

Assay [2] has as its system human model (NT2) neurons. The assay is described as follows: Neuroplastogenicity (neurite outgrowth) assay in NT2 neurons. The assay is classed as cell-based. Details: key: a positive (+) designation indicating strong evidence of enhanced neurite outgrowth in drug-treated NT2 cells compared to vehicle-treated cells; a negative (−) designation indicating weak or no evidence of enhanced neurite outgrowth in drug-treated NT2 cells compared to vehicle-treated cells. To be noted: 1 or 10 μM, 48 h, visual inspection vs vehicle (0.1% DMSO). An excerpt:
Classic psychedelics such as psilocybin and DMT show potential to treat anxiety and depression, and it has been theorized that such long-term improvements arise because these drugs rapidly and lastingly stimulate neuroplasticity (Calder and Hasler, 2023, Neuropsychopharmacol. 48:104-112). Thus, it was of interest to determine the potential of new compounds as neuroplastogens. Herein, we assess the capacity of various compounds to enhance neurite outgrowth in human model (NT2) neurons.
Human NT2/D1 precursor cells were purchased from the American Type Culture Collection (ATCC, Manassas, VA, USA). Neuronal differentiation was carried out as previously described (Roloff et al., 2015, PloS ONE 10:e0118536) with minor modifications. Firstly, NT2/D1 cells were seeded in T-25 suspension culture flasks (REF #690190, Greiner bio-one, Germany). Each flask contains a minimum of 5×10^6 cells in 10 ml of DMEM/F12 supplemented with 10% fetal bovine serum (FBS), 1% penicillin and streptomycin and 10 μM retinoic acid (RA) medium to start neuronal differentiation. The cells were cultured for 3 days in free floating medium. At the end of the incubation cells were trypsinized and collected by centrifugation, mechanically dispersed, and counted. Counted cells were seeded along Poly D-Lysine (PDL) coated cover slips (12 mm; diameter round, Fisher Scientific; GG-12-PDL) containing a minimum of 0.1×10^5 cells in culture medium without RA. The next day culture medium was replaced with RA medium containing 2% of FBS. These cells cultured for 5 days and two days later, RA medium was changed.
After cells had successfully attached and established along coverslips, the RA medium was replaced with new medium containing 2% FBS and one of the following: (1) test compound (1 or 10 μM), (2) RhoK (ROCK) inhibitor Y-27632 (1 μM) as a positive control (Dihydrochloride; Sigma-Aldrich) (Roloff et al., 2015, PloS ONE 10:e0118536); (3) DMT (1 or 10 μM) as a positive control (Calder and Hasler, 2023, Neuropsychopharmacol. 48:104-112), or (4) vehicle (0.1% DMSO) as a negative control. These cells were incubated for 48 hours under standard conditions (370C, 5% CO2). The cells cultured along coverslips were collected after 48 hours of treatment. The coverslips washed with calcium chloride and magnesium chloride-free phosphate buffered saline (PBS) pH 7.4 (Gibco, #70011-044) and fixed in paraformaldehyde (PFA) 4% in PBS (#J61899, thermoscientific) for 15 min at room temperature (RT) and washed three times with 0.01% of Triton-X100 in PBS (PBST) to remove remaining PFA and to permeabilize the cells. Non-specific binding sites were blocked with 5% of Bovine Serum Albumin (BSA) solution (#9048-46-8, Millipore) in PBST for 60 minutes at RT. Rabbit monoclonal antibody β-III-tubulin (1:5,000, ab52623, Abcam) was applied overnight (O/N) at 4° C. Next day cells are washed three times in PBST, neurons were incubated with secondary antibody Donkey anti-rabbit IgG(H+L) Alexa Fluor™ Plus488 (1:5000 #A32790, Invitrogen) for 1 hour at RT. These coverslips were mounted on Gluoromount-G™, with 4′6-diamidino-2′henylindoldihydrochloride (DAPI) (#E141818, Invitrogen). The immunofluorescence images were analyzed using an Olympus VS110 slide scanner microscope.
B-III-Tubulin immunofluorescence was quantified using ImageJ. Briefly, Corrected Total Cell Fluorescence (CTCF) was acquired for at least ˜8-10 representative cells, where CTCF=Integrated Density−[Area of selected cell*Mean Fluorescence of background]. The CTCF values, referred to herein as ‘signal intensities’, were used to calculate overall means±SD for each treatment. One-Way ANOVA was used to compare treatments. Further, the mean of each treatment was compared with the mean of the control treatment (RA-differentiated cells treated with vehicle, 0.1% DMSO) using Dunnett's multiple comparison procedure. […]

For a further assay, the target named is T3, 5-HT1A receptor (Homo sapiens, UniProt P08908).
T3 construct: purchased Perkin Elmer 6110501400UA
T3 sequence (P08908 1-422): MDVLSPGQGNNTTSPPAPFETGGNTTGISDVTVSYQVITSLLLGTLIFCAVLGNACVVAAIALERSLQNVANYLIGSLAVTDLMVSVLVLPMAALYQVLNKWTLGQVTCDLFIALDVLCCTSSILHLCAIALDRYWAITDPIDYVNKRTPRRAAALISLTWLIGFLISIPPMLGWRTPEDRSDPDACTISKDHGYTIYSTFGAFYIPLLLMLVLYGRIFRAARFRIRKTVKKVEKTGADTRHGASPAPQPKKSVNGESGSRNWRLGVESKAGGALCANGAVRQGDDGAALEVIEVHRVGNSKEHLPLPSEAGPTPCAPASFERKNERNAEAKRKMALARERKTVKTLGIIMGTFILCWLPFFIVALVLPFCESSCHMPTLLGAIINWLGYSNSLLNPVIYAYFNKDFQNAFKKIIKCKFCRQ
The assay is described as follows: 5-HT1A receptor radioligand competition assay (SPA, [3H]8-hydroxy-DPAT). To be noted: 0.5 nM hot 8-hydroxy-DPAT; membranes containing 5-HT1A. The class given is binding. As for the experimental part: 5-HT1A receptor. […] After incubation, the samples were read on a MicroBeta 2 Microplate Counter (perkinelmer.com). Non-specific binding was carried out in the presence of 100 μM of metergoline (M3668-500MG, Sigma-Aldrich). Equilibrium binding constant for 8-hydroxy-DPAT (KD) was determined from a saturation binding curve using one-site saturation binding analysis from GraphPad PRISM software (Version 9.2.0). Test compound was dissolved to 100 mM in dimethylsulfoxide (DMSO), and dilutions were carried out in assay buffer. […] Ki values were calculated from the competition displacement data using the competitive binding analysis from GraphPad PRISM software. […] Conversely, blank preparations lacking any drug (simply termed ‘DMSO’ samples) were used as negative controls, in addition to those containing tryptophan which is not known to bind the 5-HT1A receptor.

[3] abbreviates: 1 nM imipramine, membranes containing human SERT, read-out: SERT, Ki.

The structures appear in SMILES notation. Where two headings read alike, the source gives them in different places.

T1 sequence (P31645 whole entry): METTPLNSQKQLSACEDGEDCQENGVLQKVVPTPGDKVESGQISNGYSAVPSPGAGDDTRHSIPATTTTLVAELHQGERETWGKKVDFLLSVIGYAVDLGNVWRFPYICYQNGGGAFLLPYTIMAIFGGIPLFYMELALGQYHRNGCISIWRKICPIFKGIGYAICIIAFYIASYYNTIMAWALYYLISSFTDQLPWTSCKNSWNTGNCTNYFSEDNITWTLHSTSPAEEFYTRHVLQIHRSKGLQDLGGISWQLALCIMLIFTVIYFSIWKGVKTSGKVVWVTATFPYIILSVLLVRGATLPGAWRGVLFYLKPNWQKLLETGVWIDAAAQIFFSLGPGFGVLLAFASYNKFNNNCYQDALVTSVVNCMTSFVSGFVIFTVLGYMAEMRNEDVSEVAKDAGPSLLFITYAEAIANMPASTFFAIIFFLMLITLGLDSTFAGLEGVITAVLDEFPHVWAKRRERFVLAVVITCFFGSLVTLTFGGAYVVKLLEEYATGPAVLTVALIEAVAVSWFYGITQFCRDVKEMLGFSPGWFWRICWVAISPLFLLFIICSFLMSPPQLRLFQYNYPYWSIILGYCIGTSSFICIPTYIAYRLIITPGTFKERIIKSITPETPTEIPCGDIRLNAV
T2 sequence (P28223 whole entry): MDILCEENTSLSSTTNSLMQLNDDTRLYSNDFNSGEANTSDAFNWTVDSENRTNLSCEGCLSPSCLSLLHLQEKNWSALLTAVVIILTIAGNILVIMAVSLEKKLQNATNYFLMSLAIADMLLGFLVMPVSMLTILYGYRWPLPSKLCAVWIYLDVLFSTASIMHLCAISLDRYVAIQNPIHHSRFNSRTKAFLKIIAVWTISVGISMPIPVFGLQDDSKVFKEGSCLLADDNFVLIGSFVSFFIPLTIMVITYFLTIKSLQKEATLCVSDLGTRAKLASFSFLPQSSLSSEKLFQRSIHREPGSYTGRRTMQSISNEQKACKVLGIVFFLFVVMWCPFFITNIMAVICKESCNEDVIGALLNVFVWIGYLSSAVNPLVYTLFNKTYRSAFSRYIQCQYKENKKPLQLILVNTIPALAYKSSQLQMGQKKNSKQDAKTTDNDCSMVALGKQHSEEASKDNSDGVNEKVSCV

Take `COc1cc(CCN)c(OC)cc1Br` [Compound 2C-B, reference compound]: the Ki in assay [1] (setting [3]) was determined as 11.4 µM.

With `CN(C)CCc1c[nH]c2ccccc12` [DMT, dimethyltryptamine, reference compound], the inhibitory constant (Ki) at 5-HT2A receptor (5-HT2A, Ki) turned out to be 1.03 µM; in assay [1] (setting [3]), 2.58 µM. Moreover, the “Evidence of neurite outgrowth: Yes (+) or No (−)” value in assay [2] is “+”.

As for `CNC(C)Cc1ccc2c(c1)OCO2` (stereo not shown) [MDMA, 3,4-methylenedioxymethamphetamine, reference compound], the Ki at 5-HT1A receptor came to 11 µM; on 5-HT2A receptor (read-out: 5-HT2A, Ki) it was 39.9 µM; in assay [1] it was 5.8 µM.
